# Data published in patent publication US6380179B1, “Method for treatment of alopecia” (Sankyo Company, Limited, priority 1997, dated 2002).
# Experiments:
# [1] = target: T1, recombinant type I human 5α-reductase (Homo sapiens, UniProt P18405); assay: Inhibitory activity against recombinant type I human 5α-reductase (conversion of 14C testosterone to 14C 5α-dihydrotestosterone); format: biochemical; conditions: recombinant human type I 5α-reductase, pH 7.5, 1 μM 14C testosterone, 37° C. 15 minutes; Table 1
# T1 construct: In order to clone the entirely translated regions of type I and type II human 5α-reductases by a polymerase chain reaction (PCR) method; made in house; host or cells: COS-1 cells transiently transfected with pME18sH5R1; resuspended 10000×g pellet of the homogenate used as the enzyme
# T1 sequence (P18405 1-259): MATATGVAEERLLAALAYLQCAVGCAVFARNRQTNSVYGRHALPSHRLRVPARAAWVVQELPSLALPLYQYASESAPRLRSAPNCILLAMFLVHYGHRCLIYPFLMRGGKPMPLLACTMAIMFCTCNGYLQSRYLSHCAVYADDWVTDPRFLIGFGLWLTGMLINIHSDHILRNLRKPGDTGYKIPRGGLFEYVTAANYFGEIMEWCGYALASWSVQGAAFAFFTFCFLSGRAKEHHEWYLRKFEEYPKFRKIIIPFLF
# Protocol: Method for Determination of the Inhibitory Activity Against Each of Type I and Type II Human 5α-reductases
# (1) Preparation of recombinant human type I and type II 5α-reductases
# In order to clone the entirely translated regions of type I and type II human 5α-reductases by a polymerase chain reaction (PCR) method, primers of Sequence ID. Nos. 1,2,3 and 4 were prepared using an Oligo 1000 DNA synthesizer (product of BECKMAN Co., Ltd.) on the basis of the base sequences of type I and type II human 5α-reductases described in published reports (Stefan. A, et al., Proc. Natl. Acad. Sci. USA, 87, 3640-3644(1990). Stefan. A, et al. Nature, 354. 159-161(1991)).
# PCR was carried out using 1 μl of cDNA. 5 μl of a PCR buffer attached. 1 μl of a 10 mM dNTP mixed solution. 1 μl each of the above-described sense and antisense-primers at a concentration of 20 μl M. 1 μl of […] of TaKaRa Taq polymerase and 40 μl of distilled water to give a reaction volume of 50 μl. For PCR, a cycle of the reactions at 94° C. for 20 seconds, at 55° C. for 1 minute and at 72° C. for 1 minute was repeated 25 times, followed by storing at 4° C. […]
# The protein content was measured by the Bradford method (Bio-Rad Protein Assay of Biorad) by using bovine gamma-globulin (bovine cohn fraction II, product of Sigma) as a standard product. […]
# [2] = test system: dihydrotestosterone (DHT) and testosterone (T) levels in blood; assay: Effects for lowering the dihydrotestosterone level in human blood after oral administration; format: in vivo; conditions: n=4 to 6
# Protocol: Effects for Lowering the Dihydrosterone Level in Human Blood
# To a human body, 1 to 10 mg/body of Compound I or 5 mg/body of Finasteride was orally administered and the dihydrotestosterone (DHT) and testosterone (T) levels in blood were measured. Their ratios (DHT/T) before administration (pre) and after passage of time (10 and 18 hours) were calculated, from which (DHT/T)/(DHT/T)pre was calculated.
# [3] = test system: monkey model animal of male pattern baldness; conditions: cited from earlier work
# [4] = test system: human baldness; conditions: clinical test; cited from earlier work
Compound,IC50 [1],"(DHT/T)/(DHT/T)pre ([2]; 1 mg/body, after 10 hours)","(DHT/T)/(DHT/T)pre ([2]; 1 mg/body, after 18 hours)","(DHT/T)/(DHT/T)pre ([2]; 5 mg/body, after 10 hours)","(DHT/T)/(DHT/T)pre ([2]; 5 mg/body, after 18 hours)","(DHT/T)/(DHT/T)pre ([2]; 10 mg/body, after 10 hours)","(DHT/T)/(DHT/T)pre ([2]; 10 mg/body, after 18 hours)",effectiveness on baldness [3],effects on human baldness [4]
"COc1ccc(C(C)(C)NC(=O)[C@H]2CC[C@H]3[C@@H]4CC[C@H]5NC(=O)C=C[C@]5(C)[C@H]4CC[C@]23C)cc1 [Compound of Reference Example 1, N-[1-Methyl1-(4-methoxyphenyl)ethyl]-3-oxo4-aza-5α-androsto-1-ene-17β-carboxamide]",49 nM,0.518,0.525,0.411,0.376,0.279,0.284,–,–
"CC(C)(C)NC(=O)[C@H]1CC[C@H]2[C@@H]3CC[C@H]4NC(=O)C=C[C@]4(C)[C@H]3CC[C@]12C [Finasteride, reference compound]",700 nM,–,–,0.553,0.461,–,–,effective in the treatment of baldness,have been recognized
CC(C)CCCC(C)C1CCC2C3C(C)CC4N(C)C(=O)CCC4(C)C3CCC12C (stereo not shown) [MK386],–,–,–,–,–,–,–,not recognized,–
